Literature values as cited in patent publication US6696551B1, “225Ac-HEHA and related compounds, methods of synthesis and methods of use” (The United States of America as represented by the …, priority 1999, dated 2004).

Which “maximum tolerated dose (MTD)” value (^225Ac chelate, mice) does the source give for O=C(O)CN(CC(=O)O)[C@H](Cc1ccc([N+](=O)[O-])cc1)CN(CC(=O)O)[C@H]1CCCC[C@@H]1N(CC(=O)O)CC(=O)O (relative stereo) [CHXA″-DTPA, N[(R)-2-amino-3-(4-nitrophenyl)propyl]-trans-(S,S)-cyclohexane-1,2-diamine-N,N,N′,N″,N″-pentaacetic acid] here?
Its value is “approximately 100 kBq”.

What about the mouse mortality (higher doses, within eight days) of the same molecule?
Its mouse mortality is 100%.
